# Paper PMC6005271
# Key:
# [1] = Double Williamson ether macrocyclisation of preformed bipyridine precursor with a bis-electrophile, high dilution (previous syntheses); settings: the molecule shown is the open-chain precursor; 25-membered ring; DMF; 72.0 h; cited from earlier work
# [2] = Ni-mediated reductive aryl-aryl (2-halopyridine) homo/cross-coupling forming the 2,2'-bipyridine C-C bond; [Ni(PPh3)2Br2] 1 eq, PPh3 2 eq, Mn 10 eq, NEt4I 1 eq; slow addition of dihalide over 4 h; settings: DMF, 50.0 mM, 50.0 °C
smiles,measurement,setting,value
Oc1ccc(-c2cccc(-c3cccc(CCCc4ccc(OCc5ccc(CBr)cc5)cc4)n3)n2)cc1,"ring closure, isolated yield",[1],6%
c1cc2cc(c1)-c1cccc(n1)CCCc1ccc(cc1)OCCCCOc1ccc(cc1)COC2,"ring closure, isolated yield","[2]; from Brc1cccc(CCCc2ccc(OCCCCOc3ccc(COCc4cccc(I)c4)cc3)cc2)n1, 26-membered ring, 5.0 h",24%
c1cc2nc(c1)-c1cccc(n1)-c1ccc(cc1)OCc1ccc(cc1)COc1ccc(cc1)CCC2,"ring closure, isolated yield","[2]; from Brc1cccc(CCCc2ccc(OCc3ccc(COc4ccc(-c5cccc(Br)n5)cc4)cc3)cc2)n1, 25-membered ring, 5.0 h",41%
c1cc2nc(c1)-c1cccc(n1)OCCc1ccc(cc1)OCCCCOc1ccc(cc1)CCO2,"ring closure, isolated yield","[2]; from Brc1cccc(OCCc2ccc(OCCCCOc3ccc(CCOc4cccc(Br)n4)cc3)cc2)n1, 26-membered ring, 5.0 h",65%
c1cc2nc(c1)-c1cccc(n1)CCCc1ccc(cc1)OCCCCOc1ccc(cc1)CCC2 [1a -> 2a],"ring closure, isolated yield","[2]; from Brc1cccc(CCCc2ccc(OCCCCOc3ccc(CCCc4cccc(Br)n4)cc3)cc2)n1, 26-membered ring, 5.0 h",71%
c1cc2nc(c1)-c1cccc(n1)COCc1ccc(cc1)OCCCCOc1ccc(cc1)COC2 [1b -> 2b],"ring closure, isolated yield","[2]; from Brc1cccc(COCc2ccc(OCCCCOc3ccc(COCc4cccc(Br)n4)cc3)cc2)n1, 26-membered ring, 5.0 h",70%
c1cc2nc(c1)-c1cccc(n1)COCc1ccc(cc1)OCCCCCCCCCCOc1ccc(cc1)COC2 [1c -> 2c],"ring closure, isolated yield","[2]; from Brc1cccc(COCc2ccc(OCCCCCCCCCCOc3ccc(COCc4cccc(Br)n4)cc3)cc2)n1, 32-membered ring, 5.0 h",67%
c1cc2nc(c1)-c1cccc(n1)-c1ccc(cc1)OCCOCCOCCOCCOc1ccc-2cc1 [1e -> 2e],"ring closure, isolated yield","[2]; from Brc1cccc(-c2ccc(OCCOCCOCCOCCOc3ccc(-c4cccc(Br)n4)cc3)cc2)n1, 27-membered ring, 5.0 h",73%
c1cc2nc(c1)-c1cccc(n1)COCc1ccc(cc1)OCCCCOc1ccc(cc1)CCC2 [1f -> 2f],"ring closure, isolated yield","[2]; from Brc1cccc(CCCc2ccc(OCCCCOc3ccc(COCc4cccc(Br)n4)cc3)cc2)n1, 26-membered ring, 5.0 h",76%
c1cc2nc(c1)-c1cccc(n1)-c1ccc(cc1)OCCCCCCCOc1ccc(cc1)CCC2 [1g -> 2g (DMF-THF 3:1)],"ring closure, isolated yield","[2]; from Brc1cccc(CCCc2ccc(OCCCCCCCOc3ccc(-c4cccc(Br)n4)cc3)cc2)n1, 26-membered ring, 5.0 h",66%
c1cc2cc(c1)-c1cccc(n1)CCCc1ccc(cc1)OCCCCOc1ccc(cc1)COC2 [1i(Br) dibromo precursor -> 2i],"ring closure, isolated yield","[2]; from Brc1cccc(COCc2ccc(OCCCCOc3ccc(CCCc4cccc(Br)n4)cc3)cc2)c1, 26-membered ring",16%
c1cc2nc(c1)-c1cccc(n1)COCc1ccc(cc1)OCCCCOc1ccc(cc1)COC2 [S4 (dichloro analogue of 1b) -> 2b],"ring closure, isolated yield","[2]; from Clc1cccc(COCc2ccc(OCCCCOc3ccc(COCc4cccc(Cl)n4)cc3)cc2)n1, 26-membered ring",56%
